This note sets out measurements from patent US8193192B2, “Heterocyclic FXR binding compounds” (Phenex Pharmaceuticals AG, priority 2006, dated 2012).

Series [1] in a line: Aqueous solubility assay, Protocol A, nephelometry method. As to conditions: PBS with 5% DMSO, aqueous with cosolvent or surfactant or cyclodextrin, kinetic from dmso stock, PBS pH 7.4, 5% DMSO, 23° C. Type of series: physicochemical. The method, then: Aqueous solubility of compounds was determined by nephelometry or by shake-flask method as follows:
Protocol A, Nephelometry Method:
Solubility of compounds was measured in PBS (pH 7.4), 5% DMSO at 23° C. Nepheloskan Ascent (Thermo Electron Corporation) nephelometer was used for measurement of light scattering. Tested compounds were dissolved in DMSO to 10 mM. Prior to measurement the compounds were further diluted with PBS in the wells to final compound concentrations of 100, 70, 50, 35, 25, 17, 12 and <10 μg/ml.
The plates were incubated at room temperature for 24 hours to reach equilibrium and the scattered light was measured. Assay validation: Aqueous solubility of acetylsalicylic acid was determined to validate the assay. […] Aqueous solubilities of examples and reference compounds are listed below in Table 2.

Series [2] addresses T1, human farnesoid X receptor (FXR) alpha ligand binding domain (Homo sapiens, UniProt Q96RI1).
T1 construct: made in house; host or cells: E. coli BL21(DE3), vector pDEST15
T1 sequence (Q96RI1 187-472 isoform Q96RI1-2): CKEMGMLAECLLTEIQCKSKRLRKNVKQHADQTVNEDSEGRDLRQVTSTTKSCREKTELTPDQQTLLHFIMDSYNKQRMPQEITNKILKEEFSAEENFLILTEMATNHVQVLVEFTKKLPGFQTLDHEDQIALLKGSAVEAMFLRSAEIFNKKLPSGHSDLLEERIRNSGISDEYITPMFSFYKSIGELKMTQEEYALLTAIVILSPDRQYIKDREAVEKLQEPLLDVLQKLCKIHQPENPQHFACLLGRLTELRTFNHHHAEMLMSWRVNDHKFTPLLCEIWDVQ
In words: FRET activity assay (ligand mediated cofactor peptide interaction, LANCE). Type of series: biochemical. Conditions: FXR-LBD/SRC-1 peptide interaction. The method, then:
Determination of a ligand mediated cofactor peptide interaction to quantify ligand binding to the nuclear receptor Farnesoid X Receptor (FXR) was performed as follows:
Preparation of human farnesoid X receptor (FXR) alpha ligand binding domain: The human FXRalpha ligand binding domain (LBD) was expressed in E. coli strain BL21(DE3) as an N-terminally glutathione-S-transferase (GST) tagged fusion protein. The DNA encoding the FXR ligand binding domain was cloned into vector pDEST15 (Invitrogen). Expression was under control of an IPTG inducible T7 promoter. The amino acid boundaries of the ligand binding domain were amino acids 187-472 of Database entry NM_005123 (RefSeq). Expression and purification of the FXR-LBD: An overnight preculture of a transformed E. coli strain was diluted 1:20 in LB-Ampicillin medium and grown at 30° C. to an optical density of OD600=0.4-0.6. Gene expression was then induced by addition of 0.5 mM IPTG. Cells were incubated an additional 6 h at 30° C., 180 rpm. Cells were collected by centrifugation (7000×g, 7 min, room temperature). Per liter of original cell culture, cells were resuspended in 10 ml lysis buffer (50 mM Glucose, 50 mM Tris pH 7.9, 1 mM EDTA and 4 mg/ml lysozyme) and left on ice for 30 min. Cells were then subjected to sonication and cell debris removed via centrifugation (22000×g, 30 min, 4° C.). Per 10 ml of supernatant 0.5 ml prewashed Glutathione 4B sepharose slurry (Qiagen) was added and the suspension kept slowly rotating for 1 h at 4° C. Glutathione 4B sepharose beads were pelleted by centrifugation (2000 g, 15 sec, 4° C.) and washed twice in wash buffer (25 mM Tris, 50 mM KCl, 4 mM MgCl2 and 1 M NaCl). The pellet was resuspended in 3 ml elution buffer per liter of original culture (elution buffer: 20 mM Tris, 60 mM KCl, 5 mM MgCl2 and 80 mM glutathione added immediately prior to use as powder). The suspension was left rotating for 15 min at 4° C., the beads pelleted and eluted again with half the volume of elution buffer than the first time. The eluates were pooled and dialysed overnight in 20 mM Hepes buffer (pH 7.5) containing 60 mM KCl, 5 mM MgCl2 as well as 1 mM dithiothreitol and 10% (v/v) glycerol. The protein was analysed by SDS-Page.
The method measures the ability of putative ligands to modulate the interaction between the purified bacterial expressed FXR ligand binding domain (LBD) and a synthetic biotinylated peptide based on residues 676-700 of SRC-1 (LCD2, 676-700). The sequence of the peptide used was B-[…]-COOH where the N-terminus was biotinylated (B). The ligand binding domain (LBD) of FXR was expressed as fusion protein with GST in BL-21 cells using the vector pDEST15. Cells were lysed by sonication, and the fusion proteins purified over glutathione sepharose (Pharmacia) according to the manufacturers instructions. […] For ease of handling and reduction of background from compound fluorescence LANCE technology makes use of generic fluorophore labels and time resolved detection Assays were done in a final volume of 25 μl in a 384 well plate, in a Tris-based buffer (20 mM Tris-HCl pH 7.5; 60 mM KCl, 5 mM MgCl2; 35 ng/μl BSA), containing 20-60 ng/well recombinantly expressed FXR-LBD fused to GST, 200-600 nM N-terminally biotinylated peptide, representing SRC1 aminoacids 676-700, 200 ng/well Streptavidin-xIAPC conjugate (Prozyme) and 6-10 ng/well Eu W1024-antiGST (Perkin Elmer). […]

Values after ≈ are worked out from the molar mass of the structure shown.

By solubility is commonly meant the concentration that dissolves in the medium under given conditions. For orientation: EC50 means the midpoint of the concentration-response curve. High values mean lower potency in that assay, low ones higher potency in that assay.

The compound `CC(C)c1onc(-c2c(Cl)cccc2Cl)c1COc1ccc(Oc2ccc(C(=O)O)cc2)cc1` [Compound A, reference compound] had a solubility at 24 h in series [1] of 24 µM (≈ 12 µg/mL). The compound `Cc1cc(OCc2c(-c3c(Cl)cccc3Cl)noc2C(C)C)cnc1Oc1ccc(C(=O)O)cc1` [Example 3, 4-(5-((3-(2,6-Dichlorophenyl)-5-isopropylisoxazol-4-yl)methoxy)-3-methylpyridin-2-yloxy)benzoic acid] yielded an EC50 in series [2] not above 1 µM.
